# Where two headings read alike, the source gives them in different places.
# Assays:
# B cells [1] = assay: B cell activation with IL-21, sCD40L, CpG, anti-IgM (proliferation, plasmablasts, IgG/IgA, viability); assay type: cell-based, human; conditions: for B cell proliferation / formation of plasmablasts / release of IgA / release of IgG: IL-21, sCD40L, CpG, anti-IgM, 5 days, A366 and MS31 concentration-dependent
# Experimental: B cells were activated as described previously. Briefly, 1.25 × 10^5 B cells (stained with 0.25 µM CTV) per well were seeded in a 48 well plate and pretreated with A366, MS31, rapamycin, or vehicle (DMSO) for 30 min and then stimulated with 2.5 μg/ml CpG, 5 μg/ml unconjugated goat antihuman IgM F(ab′)2 fragments, 1 μg/ml sCD40L, and 50 ng/ml recombinant human IL-21 for 5 days.
# (§1) For analysis of the surface markers, 1.5–2*10^5 cells of each sample were blocked with human FcR Blocking Reagent (15 min, 4 °C). Afterwards, samples were stained with up to 7 µl of a mixture of different surface marker antibodies (15 min, 4 °C) and 250 µl of 10 % FCS/PBS were added. After centrifugation (300 g, 5 min, 4 °C) samples were resuspended in 100 µl PBS and measured with MACSQuant® Analyzer 10 flow cytometer. For M1-/M2-MdMs, anti-CD86, anti-CD14, anti-HLA-DR, anti-CD206, anti-CD80, anti-TREM2, and anti-CD163 were used. For CD4^+ T cells, anti-CD69, anti-CD45RO, anti-CD134, anti-CD154, anti-CD3, anti-CD25 were employed. For B cells, anti-CD27, anti-CD19, and anti-CD38 were applied. Zombie Aqua™ Fixable Viability Kit (1:500 dilution, BioLegend, San Diego, CA, USA) (for CD4^+ T cells, macrophages) or Annexin/PE staining (BD Biosciences, Heidelberg, Germany) (for B cells) was used to discriminate living and dead cells according to the manufacturers protocol. For T cell and B cell proliferation assays, freshly isolated T and B cells were stained with CTV and the decrease in CTV as a result of cell proliferation was detected by flow cytometry. CTV positive cells were gated in high proliferating cells (low CTV level), medium proliferating cells (medium CTV level), and nonproliferating cells (high CTV level). Plasmablasts were characterized as CD27^+CD38^+ cells, naïve B as CD19^+CD27^lowCD38^med, and memory B cells as CD19^+CD27^med CD38^low (Supplementary Fig. 1). For M1 MdMs, the cell population was gated using FSC/SSC channel, for M2 MdMs, the CD163^med population was gated since IL4 downregulates CD163 [18] and for CD4^+ T cells, CD3^+CD25^+ cells were gated. Geometric mean of the fluorescent intensity was calculated using FlowJo software V10 (Treestar, Ashland, TN, USA). Fold induction of surface marker expression was calculated using the DMSO-treated cells as control.
# (§2) For determination of cytokine concentrations (IL10, IL17, IL8, IL6, IFNγ, CCL2) in the supernatant of humane immune cells, cytometric bead array (BD Biosciences, Heidelberg, Germany) was used. For the detection of IgG, IgA, PGE2, CCL18, and CCL17 an ELISA was performed. The cytometric bead arrays and the ELISAs were performed according to the manufacturers protocol.
# B cells [2] = assay: energy metabolism (Seahorse OCR/ECAR), activated B cells; assay type: cell-based, human; conditions: 5 days
# Experimental: (§3) The energy metabolism was determined as described previously. Briefly, for the analysis of the extracellular acidification rate (ECAR) and the oxygen consumption rate (OCR) for human M1 MdMs, M2 MdMs, and activated B-/ CD4^+ T cells, the Seahorse XFe96 FluxPak (Agilent, Waldbronn, Germany) was used as recommended by the supplier. MdMs were polarized to M1 or M2 MdMs, B- and CD4^+ T cells were activated in the presence of A366, MS31, or vehicle (DMSO) for 48 h (M1 MdMs), 24 h (M2 MdMs) or 5 days (T/B cells). Cells were washed with Seahorse XF RPMI medium pH 7.4 (Agilent, Waldbronn, Germany), and OCR and ECAR were measured for a period of 120 min using the Seahorse XFe96 Analyzer (Agilent, Waldbronn, Germany) and analyzed by Wave Software (Agilent, Waldbronn, Germany). For T/B cells, the values after 50 min of stimulation of samples were related to the unstimulated control sample. For macrophages, the values at 50 min in treated samples were related to the vehicle control.
# [3] = test system: Spindlin-1-H3K4me3-interaction; set-up: method as in PMID 31260300, PMID 34492335; conditions: cited from earlier work
# M1 MdMs [4] = assay: viability assay (Orangu, formazan-based), M1 MdM; assay type: cell-based, human; conditions: 48 h, n = 3
# Experimental: (§4) 2 × 10^5 CD4^+ T cells, 1 × 10^5 B cells, 1 × 10^5 monocytes, 1 × 10^5 M1 MdMs, or 1 × 10^5 M2 MdMs were treated with A366, MS31, or vehicle for 48 h. The viability was determined with the Orangu^TM assay as described by the manufacturer.
# M2 macrophages = assay: polarization of MdMs to M2 macrophages (surface markers, cytokines, viability); assay type: cell-based, human
# Experimental: (§5) The generation of monocyte-derived macrophages (MdMs) was performed as previously described. Briefly, 0.5 × 10^6 CD14^+ cells/well were differentiated to macrophages in the presence of 10 ng/ml M-CSF (for M2 macrophages) or 10 ng/ml GM-CSF (for M1 macrophages) for 7 days. The macrophages were polarized in the presence of different concentrations of A366, MS31, or vehicle (DMSO) in 48-well plates. After pre-incubation with test substances or DMSO for 30 min, stimulants for differentiation were added: 20 ng/ml IFNγ for M1 macrophages and 10 ng/ml IL4 for M2 macrophages and incubated for 48h and 24h, respectively.
# as §1, §2
# monocytes = assay: viability assay (Orangu, formazan-based), monocytes; assay type: cell-based, human; conditions: 48 h, n = 3, read-out: Monocyte viability IC50
# Experimental: as §4
# [5] = test system: primary human immune cells; assay: viability of primary human immune cells, formazan-based Orangu assay (ranges over cell types); conditions: 48 h
# Experimental: as §4
# M1 macrophages = assay: polarization of MdMs to M1 macrophages (surface markers, cytokines, viability); assay type: cell-based, human
# Experimental: as §5, §1, §2
# M2 MdMs [6] = assay: energy metabolism (Seahorse OCR/ECAR), M2 MdMs; assay type: cell-based, human; conditions: polarized 24 h in presence of compound
# Experimental: as §3
# B cells [7] = assay: viability assay (Orangu, formazan-based), B cells; set-up: species or system human; conditions: 48 h, n = 3, read-out: B cell viability IC50
# Experimental: as §4
# M1 MdMs [8] = assay: energy metabolism (Seahorse OCR/ECAR), M1 MdMs; assay type: cell-based, human; conditions: polarized 48 h in presence of compound
# Experimental: as §3
# CD4+ T cells [9] = assay: CD4+ T cell activation with anti-CD3/anti-CD28 (proliferation, surface markers, cytokines, viability); assay type: cell-based
# Experimental: CTV staining was performed according to the protocol of supplier.
# For analysis of the surface markers, 1.5–2*10^5 cells of each sample were blocked with human FcR Blocking Reagent (15 min, 4 °C). Afterwards, samples were stained with up to 7 µl of a mixture of different surface marker antibodies (15 min, 4 °C) and 250 µl of 10 % FCS/PBS were added. After centrifugation (300 g, 5 min, 4 °C) samples were resuspended in 100 µl PBS and measured with MACSQuant® Analyzer 10 flow cytometer. […] For CD4^+ T cells, anti-CD69, anti-CD45RO, anti-CD134, anti-CD154, anti-CD3, anti-CD25 were employed. […] Zombie Aqua™ Fixable Viability Kit (1:500 dilution, BioLegend, San Diego, CA, USA) (for CD4^+ T cells, macrophages) or Annexin/PE staining (BD Biosciences, Heidelberg, Germany) (for B cells) was used to discriminate living and dead cells according to the manufacturers protocol. For T cell and B cell proliferation assays, freshly isolated T and B cells were stained with CTV and the decrease in CTV as a result of cell proliferation was detected by flow cytometry. CTV positive cells were gated in high proliferating cells (low CTV level), medium proliferating cells (medium CTV level), and nonproliferating cells (high CTV level). […] For M1 MdMs, the cell population was gated using FSC/SSC channel, for M2 MdMs, the CD163^med population was gated since IL4 downregulates CD163 [18] and for CD4^+ T cells, CD3^+CD25^+ cells were gated. Geometric mean of the fluorescent intensity was calculated using FlowJo software V10 (Treestar, Ashland, TN, USA). Fold induction of surface marker expression was calculated using the DMSO-treated cells as control.
# CD4+ T cells [10] = assay: viability assay (Orangu, formazan-based), CD4+ T cells; set-up: species or system human; conditions: 48 h, n = 3, read-out: T cell viability IC50
# Experimental: as §4
# M2 MdMs [11] = assay: viability assay (Orangu, formazan-based), M2 MdM; assay type: cell-based, human; conditions: 48 h, n = 3
# Experimental: as §4
# [12] = M2 polarization, 24 h, supernatant
# [13] = M1 polarization, 48 h, flow cytometry
# [14] = M1 polarization, 48 h, supernatant
smiles,measurement,setting,value
CO[C@H]1C[C@@H]2CC[C@@H](C)[C@@](O)(O2)C(=O)C(=O)N2CCCC[C@H]2C(=O)O[C@H]([C@H](C)C[C@@H]2CC[C@@H](O)[C@H](OC)C2)CC(=O)[C@H](C)/C=C(\C)[C@@H](O)[C@@H](OC)C(=O)[C@H](C)C[C@H](C)/C=C/C=C/C=C/1C [rapamycin],B cell proliferation,B cells [1],inhibit
same,formation of plasmablasts,B cells [1],inhibit
same,release of IgA,B cells [1],inhibit
same,release of IgG,B cells [1],inhibit
same,"energy metabolism of activated B cells (OCR, ECAR)",B cells [2],induced both glycolysis and oxidative phosphorylation
COc1c(CN)cc(CN)cc1OCCCN1Cc2ccccc2C1 [MS31],IC50,[3],0.077 µM
same,IC50,M1 MdMs [4],3120 µM
same,overall effect on M2 polarization,M2 macrophages,may weaken M2 polarization
same,cytotoxicity during polarization of macrophages to M2 MdMs,"M2 macrophages; 0–50 µM, zombie staining",did not induce cytotoxicity
same,CD86 surface marker expression,"M2 macrophages; M2 polarization, 24 h, flow cytometry",reduced
same,CCL2 release,M2 macrophages; [12],reduced
same,CCL18 release,M2 macrophages; [12],increased
same,IL10 release,M2 macrophages; [12],reduced
same,PGE2 release,M2 macrophages; [12],reduced
same,"B cell activation (proliferation, plasmablast formation, release of immunoglobulins A and G)",B cells [1]; 2.5 µM,clearly prevented
same,B cell proliferation,B cells [1],markedly reduced
same,formation of plasmablasts,B cells [1],markedly reduced
same,release of IgA,B cells [1],markedly reduced
same,release of IgG,B cells [1],markedly reduced
same,IC50,monocytes,42 µM
same,IC50,"[5]; range for CD4+ T cells and B cells, read-out: viability IC50 values",11 to 22 µM
same,IC50,"[5]; range over all immune cell types tested, read-out: IC50, immune cell type-dependent cytotoxicity",11 to 3120 µM
same,overall effect on M1 polarization,M1 macrophages,may shift M1 to an M2 phenotype
same,cytotoxicity during polarization of M1 macrophages,"M1 macrophages; 0–50 µM, 48 h, zombie staining",did not induce cytotoxicity
same,CD163 surface marker expression,M1 macrophages; [13],slightly increased
same,TREM2 surface marker expression,M1 macrophages; [13],slightly increased
same,release of IFNγ,M1 macrophages; [14],upregulated the release of IFNγ more pronouncedly
same,release of IL8,M1 macrophages; [14],significantly inhibited
same,OCR in M2 MdMs,M2 MdMs [6],only slightly increased
same,IC50,B cells [7],11 µM
same,"energy metabolism (OCR, ECAR) of M1 MdMs",M1 MdMs [8],did not affect
same,cytotoxic effects on CD4+ T cells,"CD4+ T cells [9]; 0–10 µM, 5 days",no cytotoxic effects
same,CD134 expression,"CD4+ T cells [9]; activated CD4+ T cells, 5 days",increased
same,"activation of CD4+ T cells (CD25 positive, CD25 and CD69 positive cells, CD69)","CD4+ T cells [9]; anti-CD3/anti-CD28, 5 days",did not influence
same,proliferation of CD4+ T cells,"CD4+ T cells [9]; anti-CD3/anti-CD28, 5 days, CTV",did not affect
same,IC50,CD4+ T cells [10],22 µM
same,IC50,M2 MdMs [11],89 µM
